23 compounds from patent US9708312B2, “Dihydropyrimidinoisoquinolinones and pharmaceutical compositions thereof for the treatment of inflammatory disorders (GPR84 antagonists)” (GALAPAGOS NV, priority 2012, dated 2017) can be followed below.

The subject of one experiment is human neutrophils. Put plainly: Human neutrophil migration assay (embelin-induced chemotaxis). The format is cell-based. As to conditions: for IC50: Neutrophil, neutrophils from human buffy coats, embelin at EC80. How it is done:
2.1. Human Neutrophil Migration Assay
The effect of agonists or antagonists for GPR84 can therefore be assayed in a neutrophil migration test. In the neutrophil migration assay, neutrophils, freshly isolated from buffy coats from human volunteers, are treated with a compound for 30 min Subsequently, the neutrophils are transferred to the upper wells of a Corning HTS transwell 96 permeable support system, of which the lower wells are filled with a embelin solution at EC80 (concentration which gives 80% of the activity of GPR84). After 1 h of incubation, migration of the neutrophils towards embelin in the lower compartment can be quantified by measuring the ATP-content of the lower wells using the ATPlite luminescence ATP detection assay system (Perkin Elmer, Cat. No.: 436110).
2.1.1 Isolation of Neutrophils from Human Buffy Coat
A human buffy coat is diluted with an equal volume of ice cold DPBS. 20 mL of the diluted buffy coat is gently mixed with 4 mL of ACD buffer (140 mM citric acid, 200 mM sodium citrate and 220 mM dextrose). Then, 12 mL of the 6% dextran/0.9% NaCl solution (15 g dextran T2000 and 2.25 g NaCl dissolved in 250 mL H2O) is added to the mixture and the samples are inverted gently up to 20 times. The total volume was transferred to a new recipient and incubated at room temperature for 1 h for complete separation of the two phases to occur. The yellowish supernatant is then transferred to a clean centrifugation tube and centrifuged for 12 min at 1300 rpm and 4° C. After centrifugation, the supernatant is discarded and the remaining cell pellet is rapidly resuspended in 12 mL of ice-cold H2O for red blood cell lysis to occur. After 20 seconds, 4 mL of ice-cold 0.6 M KCl is added. Samples are mixed carefully and centrifuged for 6 min at 1300 rpm, 4° C. The supernatant is discarded and the red blood cell lysis procedure is repeated one more time. Subsequently, the cell pellet is resuspended in 4 mL of DPBS and layered over 5 mL of Lymphoprep (Nycomed Pharma, Cat. No.: 1114545) in a 15 mL centrifuge tube. After centrifugation for 12 min at 1300 rpm, 4° C., the supernatant is removed and the cell pellet, containing the neutrophils, is resuspended in 25 mL chemotaxis buffer (RPMI 1640 medium, supplemented with 10 mM HEPES; freshly made for each experiment)
A cell suspension of 8.9×10^6 cells per milliliter is prepared. 20 μL of compound solution in chemotaxis buffer is added to 180 μL cell suspension. The mixture is incubated at 37° C. for 30 min with intermediate resuspension of the cells after 15 min Following this, 70 μL cell suspension is transferred to the upper compartment of a Corning HTS transwell 96 permeable support system with 5.0 μm pore size polycarbonate membrane (Corning, Cat. No.: 3387). The receiver well of the transwell system is then filled with 200 μL chemotaxis buffer containing compound and chemotactic agent (embelin). After incubation at 37° C. in 5% CO2 for 1 h, the upper plate of the transwell system is removed and the cell suspension in the receiver plate is transferred to a 96-well V-bottom plate. 50 μL of DPBS is added to the receiver plate to prevent remaining cells from drying out. The V-bottom plate is centrifuged for 6 min at 1500 rpm. The supernatant is removed and the cells are resuspended in 50 μL DPBS. The cells are then transferred back to the receiver plate of the transwell system. After this, 100 μL ATPlite solution (Perkin Elmer, Cat. No: 436110) was added to the cells. The plate is incubated for 10 min in the dark, while shaking. […] of cell lysate is then transferred to a white 96-well plate and luminescence is measured. The detected luminescent signal is considered as linearely related to the number of cells having migrated from the upper well to the receiver well.

For another experiment, the target named is T1, GPR84 (Homo sapiens, UniProt Q9NQS5).
T1 construct: expressed in transfected cells
T1 sequence (Q9NQS5 whole entry): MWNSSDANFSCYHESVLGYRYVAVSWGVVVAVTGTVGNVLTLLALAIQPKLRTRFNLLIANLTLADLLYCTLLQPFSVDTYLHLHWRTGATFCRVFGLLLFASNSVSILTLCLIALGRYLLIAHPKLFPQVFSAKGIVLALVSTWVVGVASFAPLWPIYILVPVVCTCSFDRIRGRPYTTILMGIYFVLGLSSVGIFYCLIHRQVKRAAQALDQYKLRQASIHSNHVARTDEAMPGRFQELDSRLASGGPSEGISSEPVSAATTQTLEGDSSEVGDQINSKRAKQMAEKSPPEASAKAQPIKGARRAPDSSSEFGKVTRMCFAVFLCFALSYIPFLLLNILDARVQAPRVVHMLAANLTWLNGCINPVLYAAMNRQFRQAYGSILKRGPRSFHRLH
Put plainly: GPR84 [35S]GTPγS binding assay, HEPES buffer. The format is biochemical. As to conditions: 3,3′ di indolylmethane at EC80, membranes from stable cell line over expressing GPR84. The method, boiled down:
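Membranes from a stable GPR84-overexpressing cell line (20 μg/well), pre-incubated with 0.1 μM GDP for 15 min at 4° C, mixed with 0.1 nM [35S]GTPγS and WGA SpA beads in 20 mM HEPES pH 7.4, 5 mM MgCl2, 250 mM NaCl, 0.05% BSA, 75 ug/mL saponin. Incubated 90 min at room temperature; scintillation proximity read after centrifugation.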
Background: GTPγS resists hydrolysis and so accumulates on activated G proteins.

The structures appear in SMILES notation.

In the case of `CC(O)C#Cc1ccc2c(c1)CCn1c-2cc(OCC2COc3ncccc3O2)nc1=O` (centres unmarked) [compound 181, 2-(2,3-dihydro-[1,4]dioxino[2,3-b]pyridin-2-ylmethoxy)-9-(3-hydroxy-but-1-ynyl)-6,7-dihydro-pyrimido[6,1-a]isoquinolin-4-one], the IC50 in the experiment with human neutrophils is 0.01 to 100 nM. On the same count and under the same terms, for `O=c1nc(OCC2CCCO2)cc2n1CCc1cc(OCc3cccc(-c4cncnc4)n3)ccc1-2` (centres unmarked) [compound 57, 9-(6-pyrimidin-5-yl-pyridin-2-ylmethoxy)-2-(tetrahydro-furan-2-ylmethoxy)-6,7-dihydro-pyrimido[6,1-a]isoquinolin-4-one] the value was 100 to 500 nM; for `N#CCOc1ccc2c(c1)CCn1c-2cc(OCC2COc3ncccc3O2)nc1=O` (centres unmarked) [compound 89, [2-(2,3-dihydro-[1,4]dioxino[2,3-b]pyridin-2-ylmethoxy)-4-oxo-6,7-dihydro-4H-pyrimido[6,1-a]isoquinolin-9-yloxy]-acetonitrile], 0.01 to 100 nM; for `O=c1nc(OCC2CCCO2)cc2n1CCc1cc(OCc3cccc([N+](=O)[O-])c3)ccc1-2` (centres unmarked) [compound 32, 9-(3-nitro-benzyloxy)-2-(tetrahydro-furan-2-ylmethoxy)-6,7-dihydro-pyrimido[6,1-a]isoquinolin-4-one], 0.01 to 100 nM. Still for that read-out and setting: for `O=c1nc(OCC2COc3ncccc3O2)cc2n1CCc1cc(OCc3ncco3)ccc1-2` (centres unmarked) [compound 86, 2-(2,3-dihydro-[1,4]dioxino[2,3-b]pyridin-2-ylmethoxy)-9-(oxazol-2-ylmethoxy)-6,7-dihydro-pyrimido[6,1-a]isoquinolin-4-one] the value was 0.01 to 100 nM; for `O=c1nc(OCC2COc3ccccc3O2)cc2n1CCc1cc(OCc3nnn[nH]3)ccc1-2` (centres unmarked) [compound 76, 2-(2,3-dihydro-benzo[1,4]dioxin-2-ylmethoxy)-9-(1H-tetrazol-5-ylmethoxy)-6,7-dihydro-pyrimido[6,1-a]isoquinolin-4-one], 0.01 to 100 nM; for `O=c1nc(OCC2COc3ncccc3O2)cc2n1CCc1cc(OCc3ccccn3)ccc1-2` (centres unmarked) [compound 91, 2-(2,3-dihydro-[1,4]dioxino[2,3-b]pyridin-2-ylmethoxy)-9-(pyridin-2-ylmethoxy)-6,7-dihydro-pyrimido[6,1-a]isoquinolin-4-one], 0.01 to 100 nM. Same read-out and setting: for `O=c1nc(OC[C@H]2COc3ncccc3O2)cc2n1CCc1cc(OCc3ncco3)ccc1-2` [compound 189] the value was 0.01 to 100 nM. Compound `O=c1nc(OCC2COc3ncccc3O2)cc2n1CCc1cc(OCc3nnn[nH]3)ccc1-2` (centres unmarked) [compound 93, 2-(2,3-dihydro-[1,4]dioxino[2,3-b]pyridin-2-ylmethoxy)-9-(1H-tetrazol-5-ylmethoxy)-6,7-dihydro-pyrimido[6,1-a]isoquinolin-4-one] registered an IC50 with human neutrophils of 100 to 500 nM. Same read-out and setting: for `CC(C)C(O)C#Cc1ccc2c(c1)CCn1c-2cc(OCC2COc3ncccc3O2)nc1=O` (centres unmarked) [compound 188, 2-(2,3-dihydro-[1,4]dioxino[2,3-b]pyridin-2-ylmethoxy)-9-(3-hydroxy-4-methyl-pent-1-ynyl)-6,7-dihydro-pyrimido[6,1-a]isoquinolin-4-one] the value was 0.01 to 100 nM; for `CC1(COCc2ccc3c(c2)CCn2c-3cc(OCC3COc4ncccc4O3)nc2=O)COC1` (centres unmarked) [compound 200, 2-(2,3-dihydro-[1,4]dioxino[2,3-b]pyridin-2-ylmethoxy)-9-(3-methyl-oxetan-3-ylmethoxymethyl)-6,7-dihydro-pyrimido[6,1-a]isoquinolin-4-one], 0.01 to 100 nM. Same read-out and setting: for `O=c1nc(OCC2COc3ncccc3O2)cc2n1CCc1cc(C#CCNCc3ccccc3)ccc1-2` (centres unmarked) [compound 193, 9-(3-benzylamino-prop-1-ynyl)-2-(2,3-dihydro-[1,4]dioxino[2,3-b]pyridin-2-ylmethoxy)-6,7-dihydro-pyrimido[6,1-a]isoquinolin-4-one] the value was 0.01 to 100 nM; for `CC(C)(O)C#Cc1ccc2c(c1)CCn1c-2cc(OCC2COc3ncccc3O2)nc1=O` (centres unmarked) [compound 136, 2-(2,3-dihydro-[1,4]dioxino[2,3-b]pyridin-2-ylmethoxy)-9-(3-hydroxy-3-methyl-but-1-ynyl)-6,7-dihydro-pyrimido[6,1-a]isoquinolin-4-one], 0.01 to 100 nM. `CCCCCCCCCC(=O)[O-].[Na+]` [sodiumdecanoate, reference compound]: the “neutrophil chemotaxis induced by GPR84 agonists” value in the experiment on human neutrophils is given as “induce neutrophil chemotaxis”. With `O=c1nc(OCC2COc3ncccc3O2)cc2n1CCc1cc(OCc3noc(C4CC4)n3)ccc1-2` (centres unmarked) [compound 156, 9-(5-cyclopropyl-[1,2,4]oxadiazol-3-ylmethoxy)-2-(2,3-dihydro-[1,4]dioxino[2,3-b]pyridin-2-ylmethoxy)-6,7-dihydro-pyrimido[6,1-a]isoquinolin-4-one], the 50% inhibitory concentration (IC50) on GPR84 lay in the range of 0.01 to 100 nM. For `CCCCn1nnnc1COc1ccc2c(c1)CCn1c-2cc(OCC2COc3ccccc3O2)nc1=O` (centres unmarked) [compound 70, 9-(1-butyl-1H-tetrazol-5-ylmethoxy)-2-(2,3-dihydro-benzo[1,4]dioxin-2-ylmethoxy)-6,7-dihydro-pyrimido[6,1-a]isoquinolin-4-one], on GPR84, the IC50 was 0.01 to 100 nM.

In the case of `N#Cc1ccc(COc2ccc3c(c2)CCn2c-3cc(OCC3CCCO3)nc2=O)cc1` (centres unmarked) [compound 17, 4-[4-oxo-2-(tetrahydro-furan-2-ylmethoxy)-6,7-dihydro-4H-pyrimido[6,1-a]isoquinolin-9-yloxymethyl]-benzonitrile], at GPR84, the IC50 was 0.01 to 100 nM. Still for that read-out and setting: for `CC(C)(Oc1ccc2c(c1)CCn1c-2cc(OCC2COc3ccccc3O2)nc1=O)C(N)=O` (centres unmarked) [compound 49, 2-[2-(2,3-dihydro-benzo[1,4]dioxin-2-ylmethoxy)-4-oxo-6,7-dihydro-4H-pyrimido[6,1-a]isoquinolin-9-yloxy]-2-methyl-propionamide] the value was 0.01 to 100 nM. For `O=c1nc(OCC2CCCO2)cc2n1CCc1cc(OCc3nnnn3C3CC3)ccc1-2` (centres unmarked) [compound 58, 9-(1-cyclopropyl-1H-tetrazol-5-ylmethoxy)-2-(tetrahydro-furan-2-ylmethoxy)-6,7-dihydro-pyrimido[6,1-a]isoquinolin-4-one], the IC50 on GPR84 was in the range of 100 to 500 nM. For `O=c1nc(OCC2COc3ncccc3O2)cc2n1CCc1cc(CN3CCCC3)ccc1-2` (centres unmarked) [compound 197, 2-(2,3-dihydro-[1,4]dioxino[2,3-b]pyridin-2-ylmethoxy)-9-pyrrolidin-1-ylmethyl-6,7-dihydro-pyrimido[6,1-a]isoquinolin-4-one], the IC50 at GPR84 lay within 100 to 500 nM.

In turn, `COc1ccc(OC)c(-c2ccc3c(c2)CCn2c-3cc(OCC3COc4ncccc4O3)nc2=O)c1` (centres unmarked) [compound 168, 2-(2,3-dihydro-[1,4]dioxino[2,3-b]pyridin-2-ylmethoxy)-9-(2,5-dimethoxy-phenyl)-6,7-dihydro-pyrimido[6,1-a]isoquinolin-4-one] displayed an IC50 on GPR84 of 0.01 to 100 nM. `N#Cc1ccc(-c2ccc3c(c2)CCn2c-3cc(OCC3COc4ncccc4O3)nc2=O)cn1` (centres unmarked) [compound 162, 5-[2-(2,3-dihydro-[1,4]dioxino[2,3-b]pyridin-2-ylmethoxy)-4-oxo-6,7-dihydro-pyrimido[6,1-a]isoquinolin-9-yl]-pyridine-2-carbonitrile] had an IC50 at GPR84 of 0.01 to 100 nM. Compound `CC(C)c1nc(COc2ccc3c(c2)CCn2c-3cc(OCC3COc4ncccc4O3)nc2=O)no1` (centres unmarked) [compound 157, 2-(2,3-dihydro-[1,4]dioxino[2,3-b]pyridin-2-ylmethoxy)-9-(5-isopropyl-[1,2,4]oxadiazol-3-ylmethoxy)-6,7-dihydro-pyrimido[6,1-a]isoquinolin-4-one] yielded an IC50 at GPR84 of 0.01 to 100 nM.

As a reminder, the IC50 is the concentration that inhibits the measured activity by half. Read a high IC50 as weaker potency in that assay.
